Measured values as given in patent US20130143929A1, “FUNGICIDAL IMIDAZOLES” (EI DU PONT DE NEMOURS AND COMPANY, priority 2010, published 2013).
Marks after values point to notes of the source that are not given here.

Columns and labels:
Type in all cases: in vivo
[1] = tested on: Septoria tritici (the causal agent of wheat leaf blotch); assay: Test B: wheat leaf blotch, preventive spray on wheat seedlings, visual disease rating; conditions: for Test B rating (100 = 100% disease control, 0 = no disease control relative to the controls): wheat leaf blotch, preventive spray on wheat seedlings
How it was run: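 Preventive test: Septoria tritici spores applied one day after run-off spraying of seedlings (200 ppm equals 800 g/ha; some tests 40 ppm). After 48 h at 24 °C saturated atmosphere and 19 days at 20 °C, disease scored visually as % control relative to untreated plants.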

[2] = tested on: Puccinia recondite f. sp. tritici (the causal agent of wheat leaf rust); assay: Test A: wheat leaf rust, preventive spray on wheat seedlings, visual disease rating; conditions: for Test A rating (100 = 100% disease control, 0 = no disease control relative to the controls): wheat leaf rust, preventive spray on wheat seedlings
How it was run: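 This was a preventive test: Puccinia recondite f. sp. tritici inoculum was applied one day after compound spray to run-off. Test suspensions were made in 50/50 acetone/water with 250 ppm surfactant, at 200 ppm (800 g/ha equivalent) or 40 ppm. Visual ratings of % disease control relative to controls were made after 24 h of saturated humidity and 7 growth-chamber days, all at 20° C.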

[3] = tested on: Blumeria graminis f. sp. tritici (also known as Erysiphe graminis f. sp. tritici, the causal agent of wheat powdery mildew); assay: Test D: wheat powdery mildew, preventive spray on wheat seedlings, visual disease rating; conditions: for Test D rating (100 = 100% disease control, 0 = no disease control relative to the controls): wheat powdery mildew, preventive spray on wheat seedlings
How it was run: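 Preventive test: seedlings sprayed to run-off and inoculated with powdery mildew spores one day later. Suspensions were made in 50/50 acetone/water with 250 ppm Trem 014 surfactant (200 ppm equals 800 g/ha). Visual ratings after 8 days at 20 °C give percent disease control versus controls.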

[4] = tested on: Botrytis cinerea (the causal agent of tomato Botrytis); assay: Test C: tomato Botrytis, preventive spray on tomato seedlings, visual disease rating; conditions: for Test C rating (100 = 100% disease control, 0 = no disease control relative to the controls): tomato Botrytis, preventive spray on tomato seedlings
How it was run: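 Preventive test: B. cinerea spore inoculation one day after tomato seedlings were sprayed to run-off with compound suspended in 50/50 acetone–water plus 250 ppm surfactant. Plants held 48 h at 20° C in saturated air, then 3 days at 24° C; visual ratings scored 100 (full control) to 0 versus controls; some entries used 40 ppm.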

[5] = no asterisk: standard test suspension concentration, 100 = 100% disease control, 0 = no control relative to controls
[6] = no asterisk (standard test suspension concentration, not 40 ppm)
[7] = asterisk: 40 ppm test suspension

Cc1cc(F)ccc1C(O)c1c(Br)nc(C)n1-c1ccc(F)cc1F (stereo not drawn) [compound 379]
Test B rating (% disease control, wheat leaf blotch) [1, 5]: 100%
Test A rating (% disease control, wheat leaf rust) [2, 5]: 100%
Test D rating (% disease control, wheat powdery mildew) [3, 5]: 79%
Test C rating (% disease control, tomato Botrytis) [4, 5]: 99%

Cc1nc(Cl)c(C(O)c2ccc(F)cc2Cl)n1-c1ccc(F)cc1Cl (stereo not drawn) [compound 129]
Test B rating (100 = 100% disease control, 0 = no disease control relative to the controls) [1, 6]: 100%
Test A rating (100 = 100% disease control, 0 = no disease control relative to the controls) [2, 6]: 100%
Test D rating (100 = 100% disease control, 0 = no disease control relative to the controls) [3, 6]: 0%
Test C rating (100 = 100% disease control, 0 = no disease control relative to the controls) [4, 6]: 98%

Cc1nc(Br)c(C(O)c2ccc(F)cc2Cl)n1-c1ccc(F)cc1Br (stereo not drawn) [compound 190]
Test B rating (100 = 100% disease control, 0 = no disease control relative to the controls) [1, 6]: 100%
Test A rating (100 = 100% disease control, 0 = no disease control relative to the controls) [2, 6]: 100%
Test D rating (100 = 100% disease control, 0 = no disease control relative to the controls) [3, 6]: 0%
Test C rating (100 = 100% disease control, 0 = no disease control relative to the controls) [4, 6]: 99%

Cc1cc(F)ccc1C(O)c1c(Cl)nc(Cl)n1-c1c(F)cccc1F (stereo not drawn) [compound 43]
Test B rating (100 = 100% disease control, 0 = no disease control relative to the controls) [1, 6]: 100%
Test A rating (100 = 100% disease control, 0 = no disease control relative to the controls) [2, 6]: 100%
Test D rating (100 = 100% disease control, 0 = no disease control relative to the controls) [3, 6]: 100%
Test C rating (100 = 100% disease control, 0 = no disease control relative to the controls) [4, 6]: 100%

COc1ccc(C(O)c2c(Br)nc(C)n2-c2c(F)cccc2F)c(F)c1 (stereo not drawn) [compound 53]
Test B rating (100 = 100% disease control, 0 = no disease control relative to the controls) [1, 7]: 100* %
Test A rating (100 = 100% disease control, 0 = no disease control relative to the controls) [2, 7]: 100* %
Test D rating (100 = 100% disease control, 0 = no disease control relative to the controls) [3, 7]: 43* %
Test C rating (100 = 100% disease control, 0 = no disease control relative to the controls) [4, 7]: 99* %

COc1ccc(-n2c(Cl)nc(Cl)c2C(O)c2ccc(F)cc2F)c(F)c1 (stereo not drawn) [compound 328]
Test B rating (100 = 100% disease control, 0 = no disease control relative to the controls) [1, 7]: 100* %
Test A rating (100 = 100% disease control, 0 = no disease control relative to the controls) [2, 7]: 100* %
Test D rating (100 = 100% disease control, 0 = no disease control relative to the controls) [3, 7]: 64* %
Test C rating (100 = 100% disease control, 0 = no disease control relative to the controls) [4, 7]: 100* %
